In publication PMC7997453 (Pharmaceuticals, 2021):
Like-named read-outs stand apart in the source and are kept apart here.

Key:
[1] = system: Caco-2 cell line; conditions: cited from earlier work; for Papp,caco-2,(pH 7.4:7.4): ref supplement 7
[2] = parameters: method as in PMID 12676880; conditions: cited from earlier work
[3] = molecular target: T1, CYP3A4 (Homo sapiens, UniProt P08684); assay: Time-dependent inhibition (TDI) assay, testosterone-6β-hydroxylation, CYP3A5*3/*3 HLM; type: biochemical
T1 sequence (P08684 whole entry): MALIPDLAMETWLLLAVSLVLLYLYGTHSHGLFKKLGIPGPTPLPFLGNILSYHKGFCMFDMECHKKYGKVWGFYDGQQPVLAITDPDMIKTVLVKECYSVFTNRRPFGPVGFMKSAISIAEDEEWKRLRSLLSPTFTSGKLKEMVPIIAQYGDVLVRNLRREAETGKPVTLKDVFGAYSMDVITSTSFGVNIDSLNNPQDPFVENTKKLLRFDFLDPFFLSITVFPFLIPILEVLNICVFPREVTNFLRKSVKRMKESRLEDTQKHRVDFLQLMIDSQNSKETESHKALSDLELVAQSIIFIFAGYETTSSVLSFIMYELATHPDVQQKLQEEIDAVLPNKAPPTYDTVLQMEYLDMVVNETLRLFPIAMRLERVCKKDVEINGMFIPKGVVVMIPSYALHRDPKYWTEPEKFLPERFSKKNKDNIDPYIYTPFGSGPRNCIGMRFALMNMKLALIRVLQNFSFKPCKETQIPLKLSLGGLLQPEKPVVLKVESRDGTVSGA
Procedure: (§1) Testosterone-6β-hydroxylation was used to measure the activity of CYP3A4 and CYP3A5. […] With the corresponding double-reciprocal plot, the derived kinetic constants from the inactivation experiments were estimated.
(§2) Two-step incubation was performed to evaluate the TDI assay. […] After pre-incubation for 3 min at 37 °C in a shaking water bath, the enzymatic reaction was started upon adding NADPH (1 mM) with various pre-reaction time (0, 5, 10, 20, 30 min). For TDI on CYP3A5, NADPH (1 mM) was added to the incubation which contained CYP3A5*1/*3 HLM (0.5 mg/mL) and CYP3cide (1.2 μM) after being pre-warmed for 3 min. […] Next step, an aliquot (20 μL) of the primary pre-reaction mixture was transferred to 180 μL of the secondary incubation system which consisted of PBS (0.1 M), testosterone (200 μM) and NADPH (1 mM). The secondary reaction was incubated at 37 °C for 10 min and terminated by adding 400 μL ice-cold acetonitrile containing prednisolone as the internal standard (0.3150 μM for CYP3A5*3/*3 HLM incubation and 0.07875 μM for CYP3A5*1/*3 HLM incubation). […] The observed inactivation rate of the affected enzyme (kobs) was the negative slope of the linear regression. kinact and KI were calculated using Equation (1) by the double-reciprocal plot. I represents the concentration of the inhibitor. (1) kobs=kinact×I/[…]

[4] = molecular target: T1, CYP3A4; assay: Reversible inhibition (RI) assay on tacrolimus metabolism, CYP3A5*3/*3 HLM
Procedure: (§3) The reactions were started with the addition of nicotinamide adenine dinucleotide phosphate (NADPH, 1 mM) and stopped 10 min later upon adding a double volume of ice-cold methanol. […] Reactions were terminated with the same method as the CYP3A4 group. All incubations were carried out in triplicate. […] Dixon plots were used to analyze the inhibitory type of RI assay and Ki value.

[5] = system: CYP3A; parameters: method as in PMID 15342469; conditions: cited from earlier work
[6] = molecular target: T2, CYP3A5 (Homo sapiens, UniProt P20815); assay: Time-dependent inhibition (TDI) assay, testosterone-6β-hydroxylation, CYP3A5*1/*3 HLM with CYP3cide; type: biochemical
T2 sequence (P20815 whole entry): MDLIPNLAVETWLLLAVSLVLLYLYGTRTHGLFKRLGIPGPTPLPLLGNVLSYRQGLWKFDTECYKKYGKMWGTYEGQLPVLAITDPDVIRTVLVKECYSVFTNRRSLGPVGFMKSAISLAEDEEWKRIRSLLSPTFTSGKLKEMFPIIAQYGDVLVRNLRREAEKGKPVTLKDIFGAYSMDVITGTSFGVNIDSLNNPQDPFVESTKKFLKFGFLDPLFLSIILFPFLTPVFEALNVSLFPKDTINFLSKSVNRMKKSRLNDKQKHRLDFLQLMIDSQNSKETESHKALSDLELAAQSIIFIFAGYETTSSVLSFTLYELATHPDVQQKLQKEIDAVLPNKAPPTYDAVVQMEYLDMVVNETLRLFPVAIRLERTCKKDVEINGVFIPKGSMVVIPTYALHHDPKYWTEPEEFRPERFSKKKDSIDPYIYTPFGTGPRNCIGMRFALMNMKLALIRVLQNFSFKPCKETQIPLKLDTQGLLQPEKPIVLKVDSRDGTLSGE
Procedure: as §1, §2

[7] = cited from earlier work
[8] = intrinsic clearance in human liver microsomes; type: in vitro ADME; conditions: In-house data, read-out: CLint,HLM
[9] = octanol/water partition coefficient; type: physicochemical; conditions: In-house data
[10] = molecular target: T2, CYP3A5; assay: Reversible inhibition (RI) assay on tacrolimus metabolism, CYP3A5*1/*3 HLM with CYP3cide
Procedure: as §3

[11] = parameters: method as in PMID 25028625; conditions: cited from earlier work
[12] = ref supplement 4; cited from earlier work
[13] = system: CYP3A5; conditions: cited from earlier work; for Km: unbound Michaelis constant
[14] = cited from earlier work; remark: listed apart in the source
[15] = parameters: method as in supplement 5; conditions: ref supplement 5; cited from earlier work
[16] = parameters: method as in supplement 4; conditions: ref supplement 4; cited from earlier work
[17] = system: CYP3A4; parameters: method as in earlier work; conditions: ref 3 (supplement ref 8), cited from earlier work; for Km: unbound Michaelis constant
[18] = parameters: method as in supplement 6; conditions: ref supplement 6; cited from earlier work
[19] = 0.125 μM STA, 0.2 μM tacrolimus
[20] = 0.125 μM STA, 0.4 μM tacrolimus
[21] = 0.125 μM STA, 0.8 μM tacrolimus
[22] = 0.125 μM STA, 1.6 μM tacrolimus
[23] = single oral dose 1 mg, CYP3A5 expressers
[24] = single oral dose 1 mg, CYP3A5 non-expressers
[25] = single oral dose 2 mg, CYP3A5 expressers
[26] = single oral dose 2 mg, CYP3A5 non-expressers
[27] = single oral dose 5 mg, CYP3A5 expressers
[28] = single oral dose 5 mg, CYP3A5 non-expressers

## Cc1ncc2n1-c1ccc(Cl)cc1C(c1ccccc1F)=NC2 [midazolam]
[1]
  Papp,caco-2,(pH 7.4:7.4): 32.4 ×10-6cm/s

## CC(=O)N1CCN(c2ccc(OCC3COC(Cn4ccnc4)(c4ccc(Cl)cc4Cl)O3)cc2)CC1 (stereo not drawn) [ketoconazole]
[2]
  inhibition (tacrolimus level), CYP3A5 non-expressers versus expressers: more significant inhibition

## COc1cc2c(c(OC)c1OC)-c1c(cc3c(c1OC)OCO3)CC(C)C(C)(O)C2OC(=O)c1ccccc1 (stereo not drawn) [STA, schisantherin A]
[3]
  TDI profile on CYP3A4 (in words): potent TDI
[3]; 0.25 μM STA, pre-incubation 0 min
  log of percentage of control activity, Figure 3A, Mean: 4.6010
[3]; 0.25 μM STA, pre-incubation 5 min
  log of percentage of control activity, Figure 3A, Mean: 4.4164
[3]; 0.25 μM STA, pre-incubation 10 min
  log of percentage of control activity, Figure 3A, Mean: 4.3386
[3]; 0.25 μM STA, pre-incubation 20 min
  log of percentage of control activity, Figure 3A, Mean: 4.2986
[3]; 0.25 μM STA, pre-incubation 30 min
  log of percentage of control activity, Figure 3A, Mean: 4.2407
[3]; 0.5 μM STA, pre-incubation 0 min
  log of percentage of control activity, Figure 3A, Mean: 4.6010
[3]; 0.5 μM STA, pre-incubation 5 min
  log of percentage of control activity, Figure 3A, Mean: 4.2393
[3]; 0.5 μM STA, pre-incubation 10 min
  log of percentage of control activity, Figure 3A, Mean: 4.0778
[3]; 0.5 μM STA, pre-incubation 20 min
  log of percentage of control activity, Figure 3A, Mean: 3.9359
[3]; 0.5 μM STA, pre-incubation 30 min
  log of percentage of control activity, Figure 3A, Mean: 3.9183
[3]; 1 μM STA, pre-incubation 0 min
  log of percentage of control activity, Figure 3A, Mean: 4.5902
[3]; 1 μM STA, pre-incubation 5 min
  log of percentage of control activity, Figure 3A, Mean: 4.1658
[3]; 1 μM STA, pre-incubation 10 min
  log of percentage of control activity, Figure 3A, Mean: 4.0515
[3]; 1 μM STA, pre-incubation 20 min
  log of percentage of control activity, Figure 3A, Mean: 3.8785
[3]; 1 μM STA, pre-incubation 30 min
  log of percentage of control activity, Figure 3A, Mean: 3.5554
[3]; 2 μM STA, pre-incubation 0 min
  log of percentage of control activity, Figure 3A, Mean: 4.6052
[3]; 2 μM STA, pre-incubation 5 min
  log of percentage of control activity, Figure 3A, Mean: 4.0322
[3]; 2 μM STA, pre-incubation 10 min
  log of percentage of control activity, Figure 3A, Mean: 3.5615
[3]; 2 μM STA, pre-incubation 20 min
  log of percentage of control activity, Figure 3A, Mean: 3.1694
[3]; 2 μM STA, pre-incubation 30 min
  log of percentage of control activity, Figure 3A, Mean: 3.0051
[3]; CYP3A4
  kinact/KI: 748.3 M⁻¹ s⁻¹
[3]; CYP3A4, testosterone-6β-hydroxylation
  KI: 2450 nM
[3]; human, CYP3A5*3/*3 human liver microsomes, probe testosterone (200 μM), CYP3A4, testosterone-6β-hydroxylation
  kinact: 0.00183 s⁻¹
[4]
  Ki: 150 nM
[4]; [19]
  Dixon plot data point, Figure 2A, Mean: 17.0000
[4]; [20]
  Dixon plot data point, Figure 2A, Mean: 9.0441
[4]; [21]
  Dixon plot data point, Figure 2A, Mean: 7.1353
[4]; [22]
  Dixon plot data point, Figure 2A, Mean: 2.6233
[4]; 0.25 μM STA, 0.2 μM tacrolimus
  Dixon plot data point, Figure 2A, Mean: 21.0000
[4]; 0.25 μM STA, 0.4 μM tacrolimus
  Dixon plot data point, Figure 2A, Mean: 14.8861
[4]; 0.25 μM STA, 0.8 μM tacrolimus
  Dixon plot data point, Figure 2A, Mean: 8.3071
[4]; 0.25 μM STA, 1.6 μM tacrolimus
  Dixon plot data point, Figure 2A, Mean: 3.9072
[4]; 0.5 μM STA, 0.2 μM tacrolimus
  Dixon plot data point, Figure 2A, Mean: 35.0000
[4]; 0.5 μM STA, 0.4 μM tacrolimus
  Dixon plot data point, Figure 2A, Mean: 23.9051
[4]; 0.5 μM STA, 0.8 μM tacrolimus
  Dixon plot data point, Figure 2A, Mean: 13.9244
[4]; 0.5 μM STA, 1.6 μM tacrolimus
  Dixon plot data point, Figure 2A, Mean: 5.0160
[4]; CYP3A5*3/*3 HLM, substrate tacrolimus
  reversible inhibition on CYP3A4 (in words): competitive reversible inhibition
[5]; erythromycin N-demethylation, read-out: inhibitor concentration causing half-maximal inactivation (KI)
  KI (inactivation): 399 nM
[5]; erythromycin probe substrate
  kinact/KI: 3843 M⁻¹ s⁻¹
[5]; reversible inhibition of CYP3A, the substrate is erythromycin, read-out: inhibitory constant (Ki)
  Ki: 49 nM
[6]
  TDI profile on CYP3A5 (in words): not observed
[7]; ref supplement 2
  fu plasma: 0.083
[8]
  microsomal CLint: 24 µL/min/mg
[1]; ref supplement 3
  Papp,caco-2: 34.41 ×10⁻⁶ cm/s
[9]
  logP: 1.7
[10]
  Ki: 110 nM
[10]; [19]
  Dixon plot data point, Figure 2B, Mean: 15.0000
[10]; [20]
  Dixon plot data point, Figure 2B, Mean: 14.0109
[10]; [21]
  Dixon plot data point, Figure 2B, Mean: 7.5773
[10]; [22]
  Dixon plot data point, Figure 2B, Mean: 5.6992
[10]; 0.25 μM STA, 0.2 μM tacrolimus
  Dixon plot data point, Figure 2B, Mean: 23.2012
[10]; 0.25 μM STA, 0.4 μM tacrolimus
  Dixon plot data point, Figure 2B, Mean: 15.6487
[10]; 0.25 μM STA, 0.8 μM tacrolimus
  Dixon plot data point, Figure 2B, Mean: 12.0521
[10]; 0.25 μM STA, 1.6 μM tacrolimus
  Dixon plot data point, Figure 2B, Mean: 5.8700
[10]; 0.5 μM STA, 0.2 μM tacrolimus
  Dixon plot data point, Figure 2B, Mean: 30.8928
[10]; 0.5 μM STA, 0.4 μM tacrolimus
  Dixon plot data point, Figure 2B, Mean: 26.2841
[10]; 0.5 μM STA, 0.8 μM tacrolimus
  Dixon plot data point, Figure 2B, Mean: 14.9975
[10]; 0.5 μM STA, 1.6 μM tacrolimus
  Dixon plot data point, Figure 2B, Mean: 8.0120
[10]; CYP3A5*1/*3 HLM with CYP3cide, substrate tacrolimus
  reversible inhibition on CYP3A5 (in words): competitive reversible inhibition

## Clc1ccccc1C(c1ccccc1)(c1ccccc1)n1ccnc1 [Clotrimazole]
[11]
  inhibition on tacrolimus metabolism, CYP3A5 non-expresser patients versus expressers: significantly greater inhibition

## C=CC[C@@H]1/C=C(\C)C[C@H](C)C[C@H](OC)[C@H]2O[C@@](O)(C(=O)C(=O)N3CCCC[C@H]3C(=O)O[C@H](/C(C)=C/[C@@H]3CC[C@@H](O)[C@H](OC)C3)[C@H](C)[C@@H](O)CC1=O)[C@H](C)C[C@@H]2OC [tacrolimus]
[12]
  LogPo:w: 3.26
[13]; 12-hydroxy tacrolimus formation, ref 3 (supplement ref 8)
  CYP3A5 12-HT Vmax: 1.4 pmol/min/pmol
[13]; 13-O-desmethyl tacrolimus formation, ref 3 (supplement ref 8)
  CYP3A5 13-DMT Vmax: 17 pmol/min/pmol
[13]; in vitro
  intrinsic clearance of tacrolimus by CYP3A5 versus CYP3A4: more than two-fold faster
[13]; ref 3 (supplement ref 8), read-out: CYP3A5 12-HT Km,u
  Km: 0.35 µM
[13]; ref 3 (supplement ref 8), read-out: CYP3A5 13-DMT Km,u
  Km: 0.21 µM
[7]; ref supplement 4
  fu plasma: 0.013
[14]; [23]
  AUC Obs (Observed): 19.34 ng·h/mL
  Cmax Obs (Observed): 3.88 ng/mL
  Tmax Obs (Observed): 1.75 h
[14]; [24]
  AUC Obs (Observed): 30.34 ng·h/mL
  Cmax Obs (Observed): 5.52 ng/mL
  Tmax Obs (Observed): 1.5 h
[14]; [25]
  AUC Obs (Observed): 60.83 ng·h/mL
  Cmax Obs (Observed): 14.09 ng/mL
  Tmax Obs (Observed): 1.26 h
[14]; [26]
  AUC Obs (Observed): 119.02 ng·h/mL
  Cmax Obs (Observed): 24.28 ng/mL
  Tmax Obs (Observed): 1.35 h
[14]; [27]
  AUC Obs (Observed): 90.40 ng·h/mL
  Cmax Obs (Observed): 20.8 ng/mL
  Tmax Obs (Observed): 1.40 h
[14]; [28]
  AUC Obs (Observed): 134.77 ng·h/mL
  Cmax Obs (Observed): 27.90 ng/mL
  Tmax Obs (Observed): 1.30 h
[15]
  fu gut: 1
[16]
  B/P: 35
[1]
  Papp,caco-2,(pH 7.4:7.4): 13.1 ×10-6cm/s
[17]; 12-hydroxy tacrolimus formation
  CYP3A4 12-HT Vmax: 0.6 pmol/min/pmol
[17]; 13-O-desmethyl tacrolimus formation
  CYP3A4 13-DMT Vmax: 8 pmol/min/pmol
[17]; read-out: CYP3A4 12-HT Km,u
  Km: 0.29 µM
[17]; read-out: CYP3A4 13-DMT Km,u
  Km: 0.21 µM
[18]
  Intrinsic solubility: 12 µg/mL
